{"source": "paper PMC8507198", "about": "(Poultry Science, 2021)", "key": {"[1]": {"system": "chicken NPSR1", "assay": "pGL3-NFAT-RE-luciferase reporter assay", "assay_type": "cell-based", "details": "2-APB (100 μM) added 0.5 h before cNPS20 (10 nM, 6 h); CHO cells expressing cNPSR1; P<0.01 vs. peptide treatment; Figure 4D"}, "[2]": {"system": "chicken NPSR1", "assay": "pGL3-CRE-luciferase reporter assay", "assay_type": "cell-based", "details": "H89 (10 μM) added 0.5 h before cNPS20 (10 nM, 6 h); CHO cells expressing cNPSR1; P<0.01 vs. peptide treatment; Figure 4E"}, "[3]": {"system": "rats", "details": "ref Smith et al., 2006; cited from earlier work"}, "[4]": {"system": "chickens", "details": "ref Smith et al., 2006; cited from earlier work"}, "[5]": {"system": "rodents", "details": "central administration, cited from earlier work"}, "[6]": {"system": "rats", "details": "administration of NPS, ref Zhang et al., 2014; cited from earlier work"}}, "data": [{"molecule": "NCCOB(c1ccccc1)c1ccccc1", "note": "[2-APB]", "values": [{"measurement": "Effect on cNPS20-induced NFAT-RE luciferase activity", "setting": "[1]", "result": "could block cNPS20-induced luciferase activity of CHO cells expressing cNPSR1"}]}, {"molecule": "O=S(=O)(NCCNC/C=C/c1ccc(Br)cc1)c1cccc2cnccc12", "note": "[H89]", "values": [{"measurement": "Effect on cNPS20-induced CRE luciferase activity", "setting": "[2]", "result": "significantly inhibited"}]}, {"molecule": "neuropeptide S (SFRNGVGSGIKKTSFRRAKS; printed: Ser-Phe-Arg-Asn-Gly- Val-Gly-Ser-Gly-Ile-Lys-Lys-Thr-Ser-Phe-Arg-Arg-Ala-Lys-Ser) [NPS]", "values": [{"measurement": "ACTH and corticosterone secretion (hypothalamic-pituitary-adrenal axis activity)", "setting": "[3]", "result": "stimulation of adrenocorticotropic hormone (ACTH) and corticosterone secretion in rats"}, {"measurement": "Hypothalamus-pituitary-adrenal axis and food intake, rats", "setting": "[3]", "result": "stimulate the hypothalamus-pituitary-adrenal axis and inhibit food intake in rats and chickens"}, {"measurement": "Hypothalamus-pituitary-adrenal axis and food intake, chickens", "setting": "[4]", "result": "stimulate the hypothalamus-pituitary-adrenal axis and inhibit food intake in rats and chickens"}, {"measurement": "Length of ketamine-induced anesthesia", "setting": "[5]; ref Kushikata et al., 2011", "result": "decreased the length of ketamine-induced anesthesia"}, {"measurement": "Memory", "setting": "[5]; ref Okamura et al., 2011", "result": "enhanced memory"}, {"measurement": "Anxiety-related effect", "setting": "[5]; ref Xu et al., 2004", "result": "anxiolytic effects"}, {"measurement": "Anxiolytic and antinociceptive effects", "setting": "[6]", "result": "anxiolytic, and antinociceptive effects in rats"}]}]}
